Results reported in patent US20240368127A1, “HSD17B13 INHIBITORS AND USES THEREOF” (FL2022-001, Inc., priority 2021, published 2024).

Biological target: T1, Recombinant human HSD17B13 enzyme (Homo sapiens, UniProt Q7Z5P4)
T1 sequence (Q7Z5P4 20-300): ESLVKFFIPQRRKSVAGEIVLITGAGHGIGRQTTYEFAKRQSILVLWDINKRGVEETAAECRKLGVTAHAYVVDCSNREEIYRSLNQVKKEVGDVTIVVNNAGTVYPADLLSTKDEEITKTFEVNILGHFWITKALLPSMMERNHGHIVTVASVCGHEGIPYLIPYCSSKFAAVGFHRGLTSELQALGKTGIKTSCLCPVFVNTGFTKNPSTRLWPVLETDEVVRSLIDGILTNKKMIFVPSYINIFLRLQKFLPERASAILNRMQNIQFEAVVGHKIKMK
Experiment: HSD17b13 NAD(P)H-Glo biochemical assay
Settings: 50 μM estradiol, 1 mM NAD+, 37° C. for 3 hours; read-out: HSD17β13 IC50
Method in brief: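 Enzyme preincubated with inhibitor 20 min at RT in 20 mM Tris pH7.4, 0.002% Tween-20, 0.02% BSA, then reacted 3 h at 37° C with 50 μM estradiol and 1 mM NAD+ (final). NADH formation read by NAD(P)H-Glo luminescence after 1 h at RT.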

| Compound | IC50 [nM] |
| --- | --- |
| CS(=O)(=O)N1CCN(c2ccc3c(c2)c(Cl)nn3-c2cc(C(F)(F)F)c(F)c(O)c2F)[C@H](Cc2ccccc2)C1 [Compound 2.06, (R)-3-(5-(2-Benzyl-4-(methylsulfonyl)piperazin-1-yl)-3-chloro-1H-indazol-1-yl)-2,6-difluoro-5-(trifluoromethyl)phenol] | ≤ 100 |
| CN(C)C(=O)N1CCN(c2ncc3c(-c4cc(C(F)(F)F)c(F)c(O)c4F)nn(C)c3n2)C[C@@H]1Cc1ccccc1 [Compound 6.07, (S)-2-Benzyl-4-(3-(2,4-difluoro-3-hydroxy-5-(trifluoromethyl)phenyl)-1-methyl-1H-pyrazolo[3,4-d]pyrimidin-6-yl)-N,N-dimethylpiperazine-1-carboxamide] | 100 to 1000 |
| Cc1nn(-c2cc(C(F)(F)F)c(F)c(O)c2F)c2cnc(N3CCN(S(C)(=O)=O)C[C@H]3Cc3ccccc3)nc12 [Compound 2, (R)-3-(5-(2-Benzyl-4-(methylsulfonyl)piperazin-1-yl)-3-methyl-1H-pyrazolo[4,3-d]pyrimidin-1-yl)-2,6-difluoro-5-(trifluoromethyl)phenol] | ≤ 100 |
| Cn1nc(-c2cc(C(F)(F)F)c(F)c(O)c2F)c2cnc(N3CCOC[C@@H]3Cc3ccccc3)nc21 [Compound 5.09, (S)-3-(6-(3-Benzylmorpholino)-1-methyl-1H-pyrazolo[3,4-d]pyrimidin-3-yl)-2,6-difluoro-5-(trifluoromethyl)phenol] | ≤ 100 |
| Cn1nc(-c2cc(C(F)(F)F)c(F)c(O)c2F)c2cnc(N3CCO[C@@H](Cc4cccnc4)C3)nc21 [Compound 12.01, (S)-2,6-Difluoro-3-(1-methyl-6-(2-(pyridin-3-ylmethyl)morpholino)-1H-pyrazolo[3,4-d]pyrimidin-3-yl)-5-(trifluoromethyl)phenol] | ≤ 100 |
| Cn1nc(-c2cc(C(F)(F)F)c(F)c(O)c2F)c2cnc(N3CCO[C@@H](Cc4ccccc4)C3)nc21 [Compound 12, (S)-3-(6-(2-Benzylmorpholino)-1-methyl-1H-pyrazolo[3,4-d]pyrimidin-3-yl)-2,6-difluoro-5-(trifluoromethyl)phenol] | ≤ 100 |
| CC(=O)c1nn(-c2cc(C(F)(F)F)c(F)c(O)c2F)c2ccc(N3CCN(S(C)(=O)=O)C[C@H]3Cc3ccccc3)cc12 [Compound 2.08] | ≤ 100 |
| COC(=O)N1CCN(c2ncc3c(-c4cc(C(F)(F)F)c(F)c(O)c4F)nn(C)c3n2)[C@H](Cc2ccccc2)C1 [Compound 6, Methyl (R)-3-benzyl-4-(3-(2,4-difluoro-3-hydroxy-5-(trifluoromethyl)phenyl)-1-methyl-1H-pyrazolo[3,4-d]pyrimidin-6-yl)piperazine-1-carboxylate] | ≤ 100 |
| Cn1nc(-c2c(C#N)cc(F)c(O)c2F)c2cnc(N3CCN(S(C)(=O)=O)C[C@H]3Cc3ccccc3)nc21 [Compound 11.16, 2-(6-((R)-2-Benzyl-4-(methylsulfonyl)piperazin-1-yl)-1-methyl-1H-pyrazolo[3,4-d]pyrimidin-3-yl)-3,5-difluoro-4-hydroxybenzonitrile] | ≤ 100 |
| CS(=O)(=O)N1CCN(c2ccc(-n3nnc4cc(F)c(O)c(F)c43)cc2)[C@H](Cc2ccccc2)C1 [Compound 1, (R)-1-(4-(2-Benzyl-4-(methylsulfonyl)piperazin-1-yl)phenyl)-5,7-difluoro-1H-benzo[d][1,2,3]triazol-6-ol] | ≤ 100 |
| Cn1nc(-c2cc(F)c(Cl)c(O)c2F)c2cnc(N3CCN(S(C)(=O)=O)C[C@H]3Cc3ccccc3)nc21 [Compound 11.10, (R)-3-(6-(2-Benzyl-4-(methylsulfonyl)piperazin-1-yl)-1-methyl-1H-pyrazolo[3,4-d]pyrimidin-3-yl)-6-chloro-2,5-difluorophenol] | ≤ 100 |
| Cn1nc(-c2cc(C(F)(F)F)c(F)c(O)c2F)c2cnc(N3CCOC(Cc4ccccc4)C3)nc21 (stereo not shown) [Compound 5.02, 3-(6-(2-Benzylmorpholino)-1-methyl-1H-pyrazolo[3,4-d]pyrimidin-3-yl)-2,6-difluoro-5-(trifluoromethyl)phenol] | ≤ 100 |
| Cn1nc(-c2cc(C(F)(F)F)c(F)c(O)c2F)c2cnc(N3CC[C@@H]3Cc3ccccc3)nc21 [Compound 15.11, (S)-3-(6-(2-Benzylazetidin-1-yl)-1-methyl-1H-pyrazolo[3,4-d]pyrimidin-3-yl)-2,6-difluoro-5-(trifluoromethyl)phenol] | ≤ 100 |
| Cc1nn(-c2cc(C(F)(F)F)c(F)c(O)c2F)c2ccc(N3CCN(S(C)(=O)=O)C[C@H]3Cc3ccccc3)cc12 [Compound 2.13, (R)-3-(5-(2-Benzyl-4-(methylsulfonyl)piperazin-1-yl)-3-methyl-1H-indazol-1-yl)-2,6-difluoro-5-(trifluoromethyl)phenol] | ≤ 100 |
| Cn1nc(-c2cc(C(F)(F)F)c(F)c(O)c2F)c2cnc(N3CCNC(=O)C3Cc3ccccc3)nc21 (stereo not shown) [Compound 5.13, 3-Benzyl-4-(3-(2,4-difluoro-3-hydroxy-5-(trifluoromethyl)phenyl)-1-methyl-1H-pyrazolo[3,4-d]pyrimidin-6-yl)piperazin-2-one] | ≤ 100 |
| CCC(=O)N1CCN(c2ncc3c(-c4cc(C(F)(F)F)c(F)c(O)c4F)nn(C)c3n2)[C@H](Cc2ccccc2)C1 [Compound 6.09, (R)-1-(3-Benzyl-4-(3-(2,4-difluoro-3-hydroxy-5-(trifluoromethyl)phenyl)-1-methyl-1H-pyrazolo[3,4-d]pyrimidin-6-yl)piperazin-1-yl)propan-1-one] | ≤ 100 |
| Cn1nc(-c2cc(C(F)(F)F)c(F)c(O)c2F)c2cnc(N3CCO[C@@H](Cc4cccc(C(N)=O)c4)C3)nc21 [Compound 12.05, (S)-3-((4-(3-(2,4-Difluoro-3-hydroxy-5-(trifluoromethyl)phenyl)-1-methyl-1H-pyrazolo[3,4-d]pyrimidin-6-yl)morpholin-2-yl)methyl)benzamide] | ≤ 100 |
| Cc1nn(-c2cc(C(F)(F)F)c(F)c(O)c2F)c2cc(Cl)c(N3CCN(S(C)(=O)=O)C[C@H]3Cc3ccccc3)nc12 [Compound 2.34, (R)-3-(5-(2-Benzyl-4-(methylsulfonyl)piperazin-1-yl)-6-chloro-3-methyl-1H-pyrazolo[4,3-b]pyridin-1-yl)-2,6-difluoro-5-(trifluoromethyl)phenol] | ≤ 100 |
| Cn1nc(-c2cc(C(F)(F)F)c(F)c(O)c2F)c2cnc(NC3(Cc4ccccc4)CCC3)nc21 [Compound 5.27, 3-(6-((1-Benzylcyclobutyl)amino)-1-methyl-1H-pyrazolo[3,4-d]pyrimidin-3-yl)-2,6-difluoro-5-(trifluoromethyl)phenol] | ≤ 100 |
| Cn1nc(-c2cc(C(F)(F)F)c(F)c(O)c2F)c2cnc(N3CCCCC3Cc3ccccc3)nc21 (stereo not shown) [Compound 5.32, 3-(6-(2-Benzylpiperidin-1-yl)-1-methyl-1H-pyrazolo[3,4-d]pyrimidin-3-yl)-2,6-difluoro-5-(trifluoromethyl)phenol] | ≤ 100 |
| COCC(=O)N1CCN(c2ncc3c(-c4cc(C(F)(F)F)c(F)c(O)c4F)nn(C)c3n2)[C@H](Cc2ccccc2)C1 [Compound 6.03, (R)-1-(3-Benzyl-4-(3-(2,4-difluoro-3-hydroxy-5-(trifluoromethyl)phenyl)-1-methyl-1H-pyrazolo[3,4-d]pyrimidin-6-yl)piperazin-1-yl)-2-methoxyethan-1-one] | ≤ 100 |
| Cn1nc(-c2cc(C(F)(F)F)c(F)c(O)c2F)c2cnc(N3CCN(S(C)(=O)=O)C[C@@H]3Cc3ccccc3)nc21 [Compound 5.06, (S)-3-(6-(2-Benzyl-4-(methylsulfonyl)piperazin-1-yl)-1-methyl-1H-pyrazolo[3,4-d]pyrimidin-3-yl)-2,6-difluoro-5-(trifluoromethyl)phenol] | ≤ 100 |
| Cn1nc(-c2cc(C(F)(F)F)c(F)c(O)c2F)c2cnc(N3CCO[C@@H](Cc4ccc(C(N)=O)cc4)C3)nc21 [Compound 12.04, (S)-4-((4-(3-(2,4-Difluoro-3-hydroxy-5-(trifluoromethyl)phenyl)-1-methyl-1H-pyrazolo[3,4-d]pyrimidin-6-yl)morpholin-2-yl)methyl)benzamide] | ≤ 100 |
| CN1CCN(c2ncc3c(-c4cc(C(F)(F)F)c(F)c(O)c4F)nn(C)c3n2)C(Cc2ccccc2)C1 (stereo not shown) [Compound 5.12, 3-(6-(2-Benzyl-4-methylpiperazin-1-yl)-1-methyl-1H-pyrazolo[3,4-d]pyrimidin-3-yl)-2,6-difluoro-5-(trifluoromethyl)phenol] | ≤ 100 |
| Cn1nc(-c2cc(C(F)(F)F)c(F)c(O)c2F)c2cnc(N3CCN(S(C)(=O)=O)C[C@H]3Cc3ccccc3)nc21 [Compound 5, (R)-3-(6-(2-Benzyl-4-(methylsulfonyl)piperazin-1-yl)-1-methyl-1H-pyrazolo[3,4-d]pyrimidin-3-yl)-2,6-difluoro-5-(trifluoromethyl)phenol] | ≤ 100 |
| CN(C)C(=O)N1CCN(c2ncc3c(-c4cc(C(F)(F)F)c(F)c(O)c4F)nn(C)c3n2)C(CC2CC2)C1 (stereo not shown) [Compound 11.21, 3-(Cyclopropylmethyl)-4-(3-(2,4-difluoro-3-hydroxy-5-(trifluoromethyl)phenyl)-1-methyl-1H-pyrazolo[3,4-d]pyrimidin-6-yl)-N,N-dimethylpiperazine-1-carboxamide] | ≤ 100 |
| Oc1c(F)cc2nnn(-c3ccc(N4CCCC(Cc5ccccc5)CC4)cc3)c2c1F (stereo not shown) [Compound 1.09, 1-(4-(4-Benzylazepan-1-yl)phenyl)-5,7-difluoro-1H-benzo[d][1,2,3]triazol-6-ol] | ≤ 100 |
| CC1(Cc2ccccc2)CCN(c2ccc(-n3nnc4cc(F)c(O)c(F)c43)cc2)CC1 [Compound 1.10, 1-(4-(4-Benzyl-4-methylpiperidin-1-yl)phenyl)-5,7-difluoro-1H-benzo[d][1,2,3]triazol-6-ol] | ≤ 100 |
